Data reported in patent publication US8207128B2, “Polypeptide inhibiting transmigration of leukocytes or growth and/or metastasis of cancer cells, and fusion protein thereof” (Supadelixir Inc., priority 2005, dated 2012).

Experiments:
RA mice = test: Migration of T cells, B cells and myeloid cells into the joint spaces of RA mice, synovial fluid flow cytometry; format: in vivo; details: dosing as in Experimental Example 3, similar to MTX-treated group, FIG. 7
Method: The polypeptide of the present invention, a saline solution, or MTX was administered to RA mice in the same manner as in EXPERIMENTAL EXAMPLE 3, and synovial fluid was obtained from the joint spaces of the mice of all the experimental groups. After the total cell number in the synovial fluid was counted, flow cytometry analysis was performed in the same manner as in EXPERIMENTAL EXAMPLE 3 to measure the number of T cells (CD3^+), B cells (CD19^+), and myeloid cells (CD11b^+, Gr-1^+) migrated to the joint spaces. The results are illustrated in FIG. 7.

mice with RA = test: Transmigration of lymphocytes and myeloid cells in the spleens of RA mice, flow cytometry; format: in vivo; details: spleen, i.p. at 2-day intervals for 4 weeks, similar to MTX-treated group, FIG. 6
Text: A polypeptide of SEQ ID NO: 26 (40 MOOD) was intraperitoneally administered to mice with RA, which had been induced in the same manner in EXPERIMENTAL EXAMPLE 2, at 2-day intervals for 4 weeks. Normal mice, saline-treated RA mice with intraperitoneal injection of a saline solution, and MTX-treated RA mice with intraperitoneal injection of a solution of MTX (100 □) in a saline solution (100 □) were used as control groups. Spleen tissues were harvested from the mice of all the experimental groups and washed with RPMI 1640 media, and single cells were isolated. After the total number of the single cells were counted, the single cells were stained with monoclonal antibodies (anti-CD3^+, CD4^+, CD8^+, CD11^+, CD19^+, CD69^+, Gr-1^+) capable of labeling T cells (CD3^+, CD4^+, CD8^+), activated T cells (CD3^+, CD69^+), B cells (CD19^+), and myeloid cells (CD11^+, Gr-1^+), and flow cytometry analysis was performed. The number of lymphocytes and myeloid cells migrated to […] was measured by determining the number of the T cells, the activated T cells, the B cells, and the myeloid cells per total cell number, and the results are illustrated in FIG. 6.

[1] = system: B16-F10-Luc-G5 cells (mouse melanoma cell line); test: In vivo transmigration of cancer cells, B16-F10-Luc-G5 injected into tail veins, lung and liver nodules; details: nude mice; 100 μg i.p. at 2-day intervals for 15 days; control peptide SEQ ID NO: 27; FIG. 17
Method: B16-F10-Luc-G5 cells (mouse melanoma cell line, Xenogen, U.S.A.) were injected into the tail veins of 10 nude mice (5 weeks old). The nude mice were divided into five mice for a control group and five mice for a test group. The control group was injected with a mixture of PBS with a peptide consisting of EEFDDAEEFDD (SEQ ID NO: 27) (control peptide) and the test group with a mixture of PBS with 100 μg of a peptide of SEQ ID NO: 26. The control peptide and the peptide of SEQ ID NO: 26 were intraperitoneally administered to the control group and the test group, respectively, at 2-day intervals for 15 days. Then, the nude mice were dissected and the lungs and livers were excised from the nude mice. Tumor nodules were counted.

SEQ ID NO: 26: polypeptide derived from the mouse CD99, corresponds to the polypeptide of SEQ ID No: 14 derived from human CD99 (SGGISDSDLAD; listed as Mus musculus)
number of T cells, B cells and myeloid cells migrated to joint spaces, relative to saline-treated group (RA mice): 50-70%
migrated cell numbers of T cells, activated T cells, B cells and myeloid cells as fraction of saline-treated group (mice with RA): about ⅔
degree of spread of melanoma (lung and liver nodules) relative to control group [1]: about 40%
